Test results: patent US20230226092A1, “CANCER […] ON G[…]” (NuCana plc, priority 2015, published 2023)
“Also recorded” adds a separate entry of the source.

Key:
[1] = tested on: primary acute myeloid leukaemia (AML) blasts; assay: In vitro cytotoxicity assay (annexin V apoptosis) in primary acute myeloid leukemia cells; assay type: cell-based, human
Procedure: NUC-1031 was assayed for its cytotoxic effects on primary cultures of acute myeloid leukaemia (AML) blasts. LD50 values (the concentration required to kill 50% of the tumour cells in culture) were calculated in respect of NUC-1031 and gemcitabine.
Bone marrow samples were collected in ethylenediaminetetraacetic acid (EDTA) from newly diagnosed, previously untreated, acute myeloid leukemia (AML) patients. AML blasts were enriched by density gradient centrifugation using Histopaque (Sigma, Poole, UK) and were subsequently maintained in Roswell Park Memorial Institute medium (RPMI) supplemented with 10% foetal bovine serum (FBS). Cells were treated with Gemcitabine or NUC-1031 at concentrations between 0.25 µM and 10 µM, and incubated for 48h. All cultures were maintained at 37° C. in a 5% CO2 humidified atmosphere.
Cells were harvested and labelled with CD34-fluorescein isothiocyanate (FITC) (BD Biosciences, Buckingham, UK) and then resuspended in 200 µl of binding buffer containing 4µl of annexin V labelled with allophycocyanin (APC) (eBioscience Ltd, Hatfield, UK). Apoptosis was quantified in the CD34^+ AML cells using an Accuri C6 flow cytometer (Becton Dickinson, CA, USA). At least 10,000 events were acquired and data were subsequently analysed using FlowJo software (Tree Star Inc., Ashland, OR, USA). All LD50 values (concentration of drug required to kill 50% of cells) were derived from the dose-response curves.

[2] = tested on: CD34^+/CD123^+ leukaemic stem cells; assay: Quantification of CD34+/CD123+ sub-populations in primary AML cells; assay type: cell-based, human
Procedure: Putative leukaemic stem cells were identified by dual expression of CD34 and CD123. The relative sensitivity of these cells to the effects of gemcitabine and NUC-1031 were assessed as a function of the percentage of these cells that remained viable following exposure to molar equivalents of each agent.

gemcitabine-[phenyl-benzoxy-L-alaninyl)]-phosphate [NUC-1031]
cytotoxic potency on CSCs and non-stem cancer cells compared with gemcitabine ([1]; AML blast cultures): increased potency | mean LD50 ([1]; primary AML blasts, CD34+ cells, 48h, annexin V): 1.6 µM | CD34^+/CD123^+ leukaemic stem cell viability as compared to gemcitabine ([2]; 1 µM and 2.5 µM): significant reductions | depletion of CSCs (CD34^+/CD123^+ cells) compared with gemcitabine ([2]; AML blast cultures, micromolar concentrations): enhanced ability to deplete CSCs; also recorded: preferentially depletes CD34^+/CD123^+ cells
